What all share (format): functional
Experiment [1] concerns Rattus norvegicus. In words: Antihypertensive activity rating in conscious SHR after 6 hr post dose at 1 mg/kg (po).
For experiment [2], the system named is Rattus norvegicus. In words: Antihypertensive activity rating in conscious SHR after 24 hr post dose at 3 mg/kg (po).
Experiment [3] relates to Rattus norvegicus. In words: Antihypertensive activity rating in conscious SHR after 1 hr post dose at 3 mg/kg (po).
The subject of experiment [4] is Rattus norvegicus. Nature of the experiment: Antihypertensive activity rating in conscious SHR after 6 hr post dose at 3 mg/kg (po).
Experiment [5] deals with Rattus norvegicus. Nature of the experiment: Antihypertensive activity rating in conscious SHR after 3 h post dose at 3 mg/kg (po).
Experiment [6] concerns Rattus norvegicus. In words: Maximum percent decrease in blood pressure in SHR dosed at 3 mg/kg (hour post dose in parentheses).
For experiment [7], the system named is Rattus norvegicus. Nature of the experiment: Antihypertensive activity rating in conscious SHR after 3 hr post dose at 1 mg/kg (po).
The test system of experiment [8] is Rattus norvegicus. Nature of the experiment: Antihypertensive activity rating in conscious SHR after 24 hr post dose at 1 mg/kg (po).
The subject of experiment [9] is Rattus norvegicus. Nature of the experiment: Antihypertensive activity rating in conscious SHR after 1 hr post dose at 1 mg/kg (po).
In experiment [10] the test system is Rattus norvegicus. Nature of the experiment: Maximum percent decrease in blood pressure in SHR dosed at 1 mg/kg (hour post dose in parentheses).
The test system of experiment [11] is Rattus norvegicus. In words: Antihypertensive activity rating in conscious SHR after 6 hr post dose at 10 mg/kg (po).
Experiment [12] deals with Rattus norvegicus. In words: Antihypertensive activity rating in conscious SHR after 3 hr post dose at 10 mg/kg (po).
Experiment [13] deals with Rattus norvegicus. In words: Maximum percent decrease in blood pressure in SHR dosed at 10 mg/kg (hour post dose in parentheses).
Experiment [14] concerns Rattus norvegicus. Nature of the experiment: Antihypertensive activity rating in conscious SHR after 1 hr post dose at 10 mg/kg (po).
Experiment [15] relates to Rattus norvegicus. In words: Antihypertensive activity rating in conscious SHR after 24 hr post dose at 10 mg/kg (po).
Experiment [16] concerns Rattus norvegicus. In words: Antihypertensive activity rating in conscious SHR after 1 hr post dose at 0.3 mg/kg (po).
Experiment [17] concerns Rattus norvegicus. Nature of the experiment: Maximum percent decrease in blood pressure in SHR dosed at 0.3 mg/kg (hour post dose in parentheses).
The test system of experiment [18] is Rattus norvegicus. Nature of the experiment: Antihypertensive activity rating in conscious SHR after 24 hr post dose at 0.3 mg/kg (po).
Experiment [19] deals with Rattus norvegicus. In words: Antihypertensive activity rating in conscious SHR after 6 hr post dose at 0.3 mg/kg (po).
For experiment [20], the system named is Rattus norvegicus. Nature of the experiment: Antihypertensive activity rating in conscious SHR after 3 hr post dose at 0.3 mg/kg (po).

The structures appear in SMILES notation.

Consider `COc1cc2nc(N3CCN(C(=O)/C(C)=C/c4cccs4)CC3)nc(N)c2cc1OC.Cl`, for which the Activity was determined as 0 in experiment [1]; 0 in [2]; 3 in experiment [3]; 1 in experiment [4]; 1 in [5]; 1 in experiment [7]. In addition, the Activity in [8] is 0; in [9], 1. For the same compound, the figures for the Decrease in experiment [6] and in experiment [10] were 34% and 14%, respectively.
For `COc1cc2nc(N3CCN(C(=O)/C=C/c4ccc(Cl)cc4)CC3)nc(N)c2cc1OC.Cl`, the values for the Activity in experiment [11] and in experiment [12] were 1 and 0, respectively. Moreover, the Decrease in [13] was found to be 10%.
For the compound `COc1cc2nc(N3CCN(C(=O)/C(C)=C/c4ccco4)CC3)nc(N)c2cc1OC.Cl`, the Activity turned out to be 1 in experiment [1]; 0 in experiment [2]; 1 in [3]; 1 in experiment [4]; 0 in experiment [5]; 0 in [7]. The Activity in [8] and in experiment [9] was 0 throughout. For the same compound, the values for the Decrease in [6] and in experiment [10] were 16% and 15%, respectively.
Take `COc1cc2nc(N3CCN(C(=O)/C=C/c4ccc(Cl)s4)CC3)nc(N)c2cc1OC.Cl`: the Activity in experiment [11], in [14] and in experiment [12] was 1 in each case. The Decrease in experiment [13] came to 12%.
For the compound `COc1cc2nc(N3CCN(C(=O)/C=C/c4ccc(C)s4)CC3)nc(N)c2cc1OC.Cl`, the Activity in experiment [2] stood at 0; in experiment [3], 0; in experiment [4], 0; in [5] it was 1. In addition, in experiment [6], the Decrease turned out to be 14%.
`COc1cc2nc(N3CCN(C(=O)/C=C/c4ccc(Cl)o4)CC3)nc(N)c2cc1OC.Cl`: the Activity in [2] came to 0; in experiment [3], 1; in experiment [4], 1; in experiment [5] it was 1. In experiment [6], the Decrease stood at 17%.
With `COc1cc2nc(N3CCN(C(=O)/C=C/c4sccc4C)CC3)nc(N)c2cc1OC.Cl`, the Activity came out at 1 in experiment [1]; 2 in experiment [11]; 2 in [14]; 2 in [12]; 1 in [7]; 0 in experiment [8]. Moreover, the Activity in experiment [9] and in experiment [15] was 1 throughout. Further, the results for the Decrease in experiment [13] and in experiment [10] were 25% and 10%, respectively.
With `COc1cc2nc(N3CCN(C(=O)/C=C/c4ccoc4)CC3)nc(N)c2cc1OC`, the Activity in experiment [2] was 0; in experiment [3] it was 1; in experiment [4] it was 1; in experiment [5] it was 1. In addition, in experiment [6], the Decrease stood at 19%.
As to `COc1cc2nc(N3CCN(C(=O)/C=C/c4ccsc4)CC3)nc(N)c2cc1OC`, the Activity in experiment [1] was 1; in [16], 1; in experiment [18], 0; in experiment [2], 0; in [3], 2; in experiment [4] it was 1. In addition, the Activity in experiment [5] stood at 1; in experiment [19] it was 1; in experiment [7] it was 1; in [8] it was 0; in experiment [9], 1; in experiment [20] it was 1. Moreover, the Decrease in experiment [17] is recorded as 11%; in [6] it was 25%; in [10] it was 19%.
On to `COc1cc2nc(N3CCN(C(=O)/C=C/c4ccc(C(C)C)cc4)CC3)nc(N)c2cc1OC`, for which the Activity in experiment [11] and in experiment [12] was 0 in each case.
For the compound `COc1cccc(/C=C/C(=O)N2CCN(c3nc(N)c4cc(OC)c(OC)cc4n3)CC2)c1.Cl`, the Activity in experiment [11] was 1; in experiment [12] it was 1; in experiment [15], 0. For the same compound, in experiment [13], the Decrease was 12%.
In the case of `COc1cc2nc(N3CCN(C(=O)/C=C/c4ccc(Cl)c(Cl)c4)CC3)nc(N)c2cc1OC`, the Activity in experiment [11] and in [12] was 0 throughout.
In the case of `CCOc1ccccc1/C=C/C(=O)N1CCN(c2nc(N)c3cc(OC)c(OC)cc3n2)CC1.Cl`, the Activity in experiment [14] and in [12] was 0 in each case.
Consider `COc1cc2nc(N3CCN(C(=O)/C=C/c4ccc(OC)c(OC)c4OC)CC3)nc(N)c2cc1OC`, for which the Activity in [11] was 1; in experiment [14], 0; in experiment [12], 1; in experiment [15], 0. Further, in [13], the Decrease is recorded as 16%.
With `COc1cc2nc(N3CCN(C(=O)/C=C/c4ccccc4C)CC3)nc(N)c2cc1OC`, the Activity was 0 in [1]; 2 in experiment [11]; 0 in [2]; 1 in [3]; 1 in experiment [4]; 1 in experiment [5]. Besides, the Activity in experiment [12] was determined as 2; in experiment [7], 0; in experiment [8], 0; in experiment [9] it was 1; in [15] it was 0. Besides, the Decrease in [6] is listed as 18%; in experiment [13] it was 23%; in experiment [10], 12%.
Turning to `COc1cc2nc(N3CCN(C(=O)/C(C)=C/c4ccccc4)CC3)nc(N)c2cc1OC.Cl`, the Activity is on record as 1 in [1]; 0 in experiment [2]; 1 in experiment [3]; 1 in experiment [4]; 0 in experiment [5]; 0 in [7]. Moreover, the Activity in experiment [8] and in [9] was 0 each time. Further, the Decrease in experiment [6] was 16%; in experiment [10], 12%.
Turning to `COc1ccccc1/C=C/C(=O)N1CCN(c2nc(N)c3cc(OC)c(OC)cc3n2)CC1.Cl`, the Activity in experiment [11] and in experiment [12] was 0 throughout.
Regarding `COc1cc2nc(N3CCN(C(=O)/C=C/c4ccc(Br)cc4)CC3)nc(N)c2cc1OC.Cl`, the Activity in experiment [11] was 1; in experiment [14], 0; in experiment [12] it was 1; in [15], 0. Further, in experiment [13], the Decrease was 12%.
In the case of `COc1cc2nc(N3CCN(C(=O)/C=C/c4ccc(OC(C)C)cc4)CC3)nc(N)c2cc1OC.Cl`, the Activity in experiment [11] worked out at 1; in [14], 0; in experiment [12] it was 1; in [15], 0. For the same compound, in experiment [13], the Decrease stood at 19%.
Take `COc1cc2nc(N3CCN(C(=O)/C=C/c4cccc([N+](=O)[O-])c4)CC3)nc(N)c2cc1OC.Cl`: the Activity in experiment [11] and in experiment [12] was 0 in each case.
For `COc1cc2nc(N3CCN(C(=O)/C=C/c4ccc(C)cc4)CC3)nc(N)c2cc1OC.Cl`, the Activity in experiment [2] is reported as 0; in experiment [3], 0; in [4], 0; in experiment [5], 1. Moreover, in experiment [6], the Decrease is reported as 10%.
For `COc1ccc(/C=C/C(=O)N2CCN(c3nc(N)c4cc(OC)c(OC)cc4n3)CC2)cc1`, the Activity in experiment [1] was 1; in experiment [11], 2; in experiment [2] it was 0; in experiment [3], 0; in experiment [4], 2; in experiment [5], 1. Moreover, the Activity is 1 in experiment [14]; 2 in experiment [12]; 1 in [7]; 0 in [8]; 0 in experiment [9]; 0 in [15]. Also, the Decrease in [6] was found to be 20%; in experiment [13], 23%; in experiment [10], 15%.
Consider `COc1cc2nc(N3CCN(C(=O)/C=C/c4cccc(C)c4)CC3)nc(N)c2cc1OC`, for which the Activity in [11] came out at 1; in experiment [14] it was 0; in [12] it was 1; in experiment [15], 0. In addition, in [13], the Decrease was determined as 18%.
Turning to `COc1cc2nc(N3CCN(C(=O)/C=C/c4ccc(C)o4)CC3)nc(N)c2cc1OC.Cl`, the Activity in experiment [1] worked out at 0; in [11] it was 1; in [14] it was 1; in experiment [12] it was 2; in [7] it was 0; in experiment [8] it was 0. For the same compound, the Activity in experiment [9] and in experiment [15] was 0 each time. In addition, the Decrease in experiment [13] worked out at 22%.
As for `CO.COc1cc(/C=C/C(=O)N2CCN(c3nc(N)c4cc(OC)c(OC)cc4n3)CC2)cc(OC)c1`, the Activity in [11], in experiment [14], in experiment [12] and in experiment [15] was 0 throughout.
With `COc1cc2nc(N3CCN(C(=O)/C=C/c4cccc(C(F)(F)F)c4)CC3)nc(N)c2cc1OC`, the Activity in experiment [11] and in experiment [12] was 0 in each case.

The values above are taken from ChEMBL document CHEMBL1122489, “Pyrimidine derivatives. 4. Synthesis and antihypertensive activity of 4-amino-2-(4-cinnamoylpiperazino)-6,7-dimethoxyquinazoline derivatives” (J Med Chem, 1983).
